This is an account of results in patent US20220411419A1, “SMALL MOLECULE MODULATORS OF MHC-I” (RetroVirox, Inc., priority 2018, published 2022).

Each structure is given as a SMILES string.

For series [1], the system named is downmodulation of MHC-I molecules expressed on the surface of HIV infected SupT1 cells. The experiment in a line: cells. Particulars: for EC50: Human immunodeficiency virus 1, SUP-T1, read-out: EC50 for inhibition of MHC-I downmodulation utilizing the R1 parameter; for activity at 100 µM: Human immunodeficiency virus 1, SUP-T1, read-out: R1 @ 100 μM (R1 value for MHC-I downmodulation as % of the vehicle control).

The nature of another series: in vitro. The conditions noted are these: human, uninfected SupT1 cells.

What is called EC50 is the midpoint of the concentration-response curve. Broadly, the CC50 is the concentration that lowers cell viability or growth by half. As to `Cc1ccc(N(Cc2ccccc2)C(=O)COc2cccc3c2OC(C)(C)C3)nn1` [Compound 36, N-Benzyl-2-((2,2-dimethyl-2,3-dihydrobenzofuran-7-yl)oxy)-N-(6-methylpyridazin-3-yl)acetamide], in series [1], the concentration for a half-maximal effect (EC50) was determined as 23.6 µM. The CC50 at 48 h in “in vitro” is above 100 µM.

Turning to `CN(C(=O)COc1cccc2c1OC(C)(C)C2)c1nc2c(s1)CCC2` [Compound 162, N-(5,6-Dihydro-4H-cyclopenta[d]thiazol-2-yl)-2-((2,2-dimethyl-2,3-dihydrobenzofuran-7-yl)oxy)-N-methylacetamide], the EC50 in series [1] was 0.027 µM. The compound also displayed a 50% cytotoxic concentration (CC50) at 48 h in the series “in vitro” of 124 µM.

`CCc1ccc(NC(=O)COc2cccc3c2OC(C)(C)C3)nc1` [Compound 68, 2-((2,2-dimethyl-2,3-dihydrobenzofuran-7-yl)oxy)-N-(5-ethylpyridin-2-yl)acetamide]: the concentration giving a half-maximal response (EC50) in series [1] stood at 0.54 µM. The CC50 at 48 h in “in vitro” is above 125 µM.

`Cc1ccc(N(C(=O)COc2cccc3c2OC(C)(C)C3)c2nc3c(s2)CCCC3)nn1` [Compound 92, 2-((2,2-Dimethyl-2,3-dihydrobenzofuran-7-yl)oxy)-N-(6-methylpyridazin-3-yl)-N-(4,5,6,7-tetrahydrobenzo[d]thiazol-2-yl)acetamide]: the EC50 in series [1] came to 25 µM. The compound also yielded a CC50 at 48 h in the series “in vitro” above 100 µM.

Take `CC1(C)Cc2cccc(OCC(=O)Nc3cncc4ccccc34)c2O1` [Compound 10, 2-((2,2-Dimethyl-2,3-dihydrobenzofuran-7-yl)oxy)-N-(isoquinolin-4-yl) acetamide]: in series [1], the EC50 is above 25 µM and the activity at 100 µM stood at 46%. In “in vitro”, this compound registered a CC50 above 100 µM and a half-maximal cytotoxic concentration (CC50) at 48 h above 100 µM.

For `CC1(C)Cc2cccc(OCC(=O)Nc3ccc(Cl)nn3)c2O1` [Compound 24, N-(6-Chloropyridazin-3-yl)-2-((2,2-dimethyl-2,3-dihydrobenzofuran-7-yl)oxy)acetamide], the 50% effective concentration (EC50) in series [1] is 4.5 µM. In addition, in “in vitro”, the cytotoxic concentration (CC50) at 48 h was above 100 µM.

As for `Cc1csc(N(Cc2ccccn2)C(=O)COc2cccc3c2OC(C)(C)C3)n1` [Compound 33, 2-((2,2-Dimethyl-2,3-dihydrobenzofuran-7-yl)oxy)-N-(4-methylthiazol-2-yl)-N-(pyridin-2-ylmethyl)acetamide], the EC50 in series [1] was 0.18 µM. In “in vitro”, this compound came in with a CC50 at 48 h above 100 µM.

As for `CC1(C)Cc2cccc(OCC(=O)Nc3nc4c(s3)CCCCC4)c2O1` [Compound 3, 2-((2,2-Dimethyl-2,3-dihydrobenzofuran-7-yl)oxy)-N-(5,6,7,8-tetrahydro-4H-cyclohepta[d]thiazol-2-yl)acetamide], in series [1], the EC50 worked out at 0.2 µM. The compound further yielded a half-maximal cytotoxic concentration (CC50) at 48 h in the series “in vitro” above 100 µM.

As to `Cc1csc(NC(=O)COc2cccc3[nH]ccc23)n1` [Compound 133, 2-((1H-Indol-4-yl)oxy)-N-(4-methylthiazol-2-yl)acetamide], the EC50 in series [1] turned out to be 1.5 µM. The compound also came in with a CC50 at 48 h in the series “in vitro” above 100 µM.

Consider `COc1ccccc1CCC(=O)N(C)c1nc2c(s1)CCCC2` [Compound 110, 3-(2-Methoxyphenyl)-N-methyl-N-(4,5,6,7-tetrahydrobenzo[d]thiazol-2-yl) propanamide], for which the concentration for a half-maximal effect (EC50) in series [1] amounted to 4.1 µM. This compound registered a half-maximal cytotoxic concentration (CC50) at 48 h in the series “in vitro” above 125 µM.

Regarding `CN(C(=O)COc1cccc2c1OCCO2)c1nc2c(s1)CCCC2` [Compound 126, 2-((2,3-Dihydrobenzo[b][1,4]dioxin-5-yl)oxy)-N-methyl-N-(4,5,6,7-tetrahydrobenzo[d]thiazol-2-yl)acetamide], the 50% effective concentration (EC50) in series [1] came to 0.8 µM. Also, the CC50 at 48 h in the series “in vitro” is above 125 µM.

For `COc1cccc(OCC(=O)N(C)c2nc3c(s2)CCCC3)c1` [Compound 121, 2-(3-Methoxyphenoxy)-N-methyl-N-(4,5,6,7-tetrahydrobenzo[d]thiazol-2-yl) acetamide], the concentration for a half-maximal effect (EC50) in series [1] turned out to be 3.9 µM. This compound displayed a CC50 at 48 h in “in vitro” above 125 µM.

`CC1(C)Cc2cccc(OCC(=O)Nc3cccc4cnccc34)c2O1` [Compound 14, 2-((2,2-Dimethyl-2,3-dihydrobenzofuran-7-yl)oxy)-N-(isoquinolin-5-yl) acetamide]: in series [1], the EC50 is above 25 µM and the activity at 100 µM is 18%. In the series “in vitro”, this compound registered a CC50 above 100 µM and a cytotoxic concentration (CC50) at 48 h above 100 µM.

As for `CC1(C)Cc2cccc(OCC(=O)Nc3nc4ccc(OC(F)(F)F)cc4s3)c2O1` [Compound 149, 2-((2,2-Dimethyl-2,3-dihydrobenzofuran-7-yl)oxy)-N-(6-(trifluoromethoxy)benzo[d]thiazol-2-yl)acetamide], in series [1], the EC50 is above 25 µM and the activity at 100 µM amounted to 27%. For the same compound, in “in vitro”, the half-maximal cytotoxic concentration (CC50) was above 100 µM and the CC50 at 48 h was above 100 µM.

As for `CC1(C)Cc2cccc(OCC(=O)N(Cc3ccc[nH]3)c3nc4c(s3)CCCC4)c2O1` [Compound 51, N-((1H-Pyrrol-2-yl)methyl)-2-((2,2-dimethyl-2,3-dihydrobenzofuran-7-yl)oxy)-N-(4,5,6,7-tetrahydrobenzo[d]thiazol-2-yl)acetamide], the concentration for a half-maximal effect (EC50) in series [1] stood at 0.015 µM. In “in vitro”, the CC50 at 48 h was above 125 µM.

With `Cc1ccc(NC(=O)COc2cccc3c2OC(C)(C)C3)nc1C` [Compound 73, 2-((2,2-Dimethyl-2,3-dihydrobenzofuran-7-yl)oxy)-N-(5,6-dimethylpyridin-2-yl)acetamide], the EC50 in series [1] worked out at 0.21 µM. The CC50 at 48 h in the series “in vitro” was above 100 µM.

On to `Cc1ccc(NC(=O)COc2cccc3c2OC(C)(C)C3)cn1` [Compound 11, 2-((2,2-Dimethyl-2,3-dihydrobenzofuran-7-yl)oxy)-N-(6-methylpyridin-3-yl) acetamide], for which, in series [1], the concentration giving a half-maximal response (EC50) is above 25 µM and the activity at 100 µM is 48%. In the series “in vitro”, this compound displayed a cytotoxic concentration (CC50) above 100 µM and a 50% cytotoxic concentration (CC50) at 48 h above 100 µM.

Turning to `CN(C(=O)COc1cccc2c1OC(C)(C)C2)c1ccc(Cl)nn1` [Compound 81, N-(6-Chloropyridazin-3-yl)-2-((2,2-dimethyl-2,3-dihydrobenzofuran-7-yl)oxy)-N-methylacetamide], in series [1], the EC50 was above 25 µM and the activity at 100 µM was 67%. In “in vitro”, the cytotoxic concentration (CC50) was above 125 µM and the cytotoxic concentration (CC50) at 48 h is above 125 µM.

For `C=Cc1ccc(N(C)C(=O)COc2cccc3c2OC(C)(C)C3)nc1` [Compound 79, 2-((2,2-Dimethyl-2,3-dihydrobenzofuran-7-yl)oxy)-N-methyl-N-(5-vinylpyridin-2-yl)acetamide], the EC50 in series [1] came to 5 µM. In “in vitro”, this compound gave a CC50 at 48 h above 125 µM.

Regarding `C=Cc1ccc(NC(=O)COc2cccc3c2OC(C)(C)C3)nc1` [Compound 67, 2-((2,2-dimethyl-2,3-dihydrobenzofuran-7-yl)oxy)-N-(5-vinylpyridin-2-yl)acetamide], the EC50 in series [1] is 2.2 µM. The CC50 at 48 h in the series “in vitro” is above 125 µM.

Take `CC1(C)Cc2cccc(OCC(=O)Nc3nc(C(F)(F)F)cs3)c2O1` [Compound 21, 2-((2,2-dimethyl-2,3-dihydrobenzofuran-7-yl)oxy)-N-(4-(trifluoromethyl)thiazol-2-yl)acetamide]: in series [1], the concentration giving a half-maximal response (EC50) was found to be 0.56 µM. This compound registered a CC50 at 48 h in the series “in vitro” above 100 µM.

Regarding `COc1ccc(OCC(=O)N(C)c2nc3c(s2)CCCC3)cc1` [Compound 127, 2-(4-Methoxyphenoxy)-N-methyl-N-(4,5,6,7-tetrahydrobenzo[d]thiazol-2-yl) acetamide], the concentration for a half-maximal effect (EC50) in series [1] was above 25 µM. This compound yielded a CC50 at 48 h in “in vitro” above 125 µM.

`CC1(C)Cc2cccc(OCC(=O)Nc3nc(C(=O)N4CC[C@H](CO)C4)cs3)c2O1` [Compound 152, (S)-2-((2,2-Dimethyl-2,3-dihydrobenzofuran-7-yl)oxy)-N-(4-(3-(hydroxymethyl)pyrrolidine-1-carbonyl)thiazol-2-yl)acetamide]: in series [1], the EC50 was above 25 µM and the activity at 100 µM was determined as 54%. In the series “in vitro”, this compound displayed a CC50 above 90 µM and a CC50 at 48 h above 90 µM.

As to `Cc1cccc2sc(NC(=O)COc3cccc4c3OC(C)(C)C4)nc12` [Compound 184, 2-((2,2-Dimethyl-2,3-dihydrobenzofuran-7-yl)oxy)-N-(4-methylbenzo[d]thiazol-2-yl)acetamide], the EC50 in series [1] was determined as 3.3 µM. The compound also gave a 50% cytotoxic concentration (CC50) at 48 h in “in vitro” above 90 µM.

Consider `CN(C(=O)COc1cccc2cc[nH]c12)c1nc2c(s1)CCCC2` [Compound 128, 2-((1H-Indol-7-yl)oxy)-N-methyl-N-(4,5,6,7-tetrahydrobenzo[d]thiazol-2-yl) acetamide], for which the 50% effective concentration (EC50) in series [1] was above 25 µM. Besides, in “in vitro”, the CC50 at 48 h is above 125 µM.

Take `Cc1cnc(NC(=O)COc2cccc3c2OC(C)(C)C3)cn1` [Compound 9, 2-((2,2-Dimethyl-2,3-dihydrobenzofuran-7-yl)oxy)-N-(5-methylpyrazin-2-yl)acetamide]: the EC50 in series [1] is 0.5 µM. The cytotoxic concentration (CC50) at 48 h in “in vitro” was above 125 µM.

As for `CCc1ccc(NC(=O)COc2cccc3c2OC(C)(C)C3)nc1C` [Compound 75, 2-((2,2-Dimethyl-2,3-dihydrobenzofuran-7-yl)oxy)-N-(5-ethyl-6-methylpyridin-2-yl)acetamide], the EC50 in series [1] worked out at 0.21 µM. This compound also yielded a CC50 at 48 h in “in vitro” of 120 µM.

As to `CN(C(=O)CCc1cccc2c1OC(C)(C)C2)c1nc2c(s1)CCCC2` [Compound 106, 3-(2,2-Dimethyl-2,3-dihydrobenzofuran-7-yl)-N-methyl-N-(4,5,6,7-tetrahydrobenzo[d]thiazol-2-yl)propanamide], in series [1], the 50% effective concentration (EC50) was determined as 0.42 µM. The same compound registered a CC50 at 48 h in the series “in vitro” above 125 µM.

As for `CC1(C)Cc2cccc(OCC(=O)Nc3nc4c(F)c(F)c(F)cc4s3)c2O1` [Compound 4, 2-((2,2-Dimethyl-2,3-dihydrobenzofuran-7-yl)oxy)-N-(4,5,6-trifluorobenzo [d]thiazol-2-yl)acetamide], the EC50 in series [1] is 0.068 µM. In “in vitro”, this compound displayed a CC50 at 48 h above 100 µM.

In the case of `CN(C(=O)COc1ccccc1C(F)(F)F)c1nc2c(s1)CCCC2` [Compound 160, N-Methyl-N-(4,5,6,7-tetrahydrobenzo[d]thiazol-2-yl)-2-(2-(trifluoromethyl)phenoxy)acetamide], in series [1], the 50% effective concentration (EC50) stood at 0.28 µM. In “in vitro”, the CC50 at 48 h was above 125 µM.

In the case of `Cc1cccc(OCC(=O)N(C)c2nc3c(s2)CCCC3)c1F` [Compound 113, 2-(2-Fluoro-3-methylphenoxy)-N-methyl-N-(4,5,6,7-tetrahydrobenzo[d]thiazol-2-yl)acetamide], in series [1], the EC50 was found to be 0.55 µM. Further, in “in vitro”, the CC50 at 48 h is above 125 µM.
